Assay results published in PMC9019507, “OAT10/SLC22A13 Acts as a Renal Urate Re-Absorber: Clinico-Genetic and Functional Analyses With Pharmacological Impacts” (Frontiers in Pharmacology, 2022).

Key:
[1] = biological target: T1, OAT10/SLC22A13 (Homo sapiens, UniProt Q9Y226); test: cell-based; parameters: full-length human OAT10 wild-type, EGFP-fused (pEGFP-N1); species or system 293A
Method: Calculation of the Half-Maximal Inhibitory Concentration Values  FIGURE 5 Effects of urate-lowering drugs and their reactive metabolites on the urate transport activity of OAT10. (A) OAT10-mediated urate transport activities in the presence or absence of urate-lowering drugs, including their reactive metabolites, at 100 μM or experimentally maximum concentrations (Table 2). AP, allopurinol; OP, oxypurinol; FEB, febuxostat; TOP, topiroxostat; BBR, benzbromarone; 6-OH BBR, 6-hydroxybenzbromarone; DU, dotinurad; LU, lesinurad; PB, probenecid; FF, fenofibrate; LOS, losartan. (B) Comparison of the effects of each compound (10 μM) on the urate transport activities of URAT1 and OAT10. Values are shown as % of vehicle control (only 0.1% dimethyl sulfoxide); data are expressed as the mean ± SD; n = 3–4 (A,B). ^†† p < 0.01 (two-sided t-test). […] The urate transport activities were measured in the presence of each compound at indicated concentrations for 1 min.

[2] = biological target: T2, URAT1/SLC22A12 (Homo sapiens, UniProt Q96S37); test: cell-based; parameters: species or system 293A; inhibition of [8-14C]-urate uptake by URAT1-expressing 293A cells, concentration-response
T2 construct: full-length human URAT1 wild-type, EGFP-fused (pEGFP-C1)
T2 sequence (Q96S37 1-553): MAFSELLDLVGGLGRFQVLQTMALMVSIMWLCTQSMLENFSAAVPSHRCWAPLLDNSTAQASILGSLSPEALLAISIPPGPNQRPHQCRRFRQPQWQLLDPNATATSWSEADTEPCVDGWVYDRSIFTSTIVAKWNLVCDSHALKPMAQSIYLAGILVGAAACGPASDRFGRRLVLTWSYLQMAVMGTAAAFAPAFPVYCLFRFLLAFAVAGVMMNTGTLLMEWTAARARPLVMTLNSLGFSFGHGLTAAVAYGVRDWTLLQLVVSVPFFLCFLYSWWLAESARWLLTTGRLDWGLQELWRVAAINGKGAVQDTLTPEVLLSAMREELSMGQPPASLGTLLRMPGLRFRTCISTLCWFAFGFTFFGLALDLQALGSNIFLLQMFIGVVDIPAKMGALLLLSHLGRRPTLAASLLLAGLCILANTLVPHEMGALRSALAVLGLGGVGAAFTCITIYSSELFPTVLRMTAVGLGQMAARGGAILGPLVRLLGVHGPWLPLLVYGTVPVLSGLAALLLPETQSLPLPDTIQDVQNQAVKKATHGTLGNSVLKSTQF
Method: Transiently URAT1-expressing 293A cells were subjected to a cell-based urate transport assay, 48 h after transfection. As a transport buffer, Ringer solution, which contains Cl−, or Cl−-free Hanks’ Balanced Salt Solution (HBSS) containing 10 μM [8-14C]-urate was used. […] Data are expressed as the mean ± SD; n = 4.

[3] = biological target: T2, URAT1/SLC22A12; test: inhibition of [[…]-14C]-urate uptake in URAT1-expressing […] cells ([…]); assay type: cell-based
[4] = biological target: T2, URAT1/SLC22A12; test: inhibition of [[…]-14C]-urate uptake in URAT1-expressing […] cells; assay type: cell-based
[5] = biological target: T1, OAT10/SLC22A13; test: inhibition of [[…]-14C]-urate uptake in OAT10-expressing […] cells; assay type: cell-based
[6] = biological target: T1, OAT10/SLC22A13; test: concentration-dependent inhibition of [[…]-14C]-urate uptake in OAT10-expressing […] cells; assay type: cell-based

T1 sequence (Q9Y226 whole entry, the tested form may be a part): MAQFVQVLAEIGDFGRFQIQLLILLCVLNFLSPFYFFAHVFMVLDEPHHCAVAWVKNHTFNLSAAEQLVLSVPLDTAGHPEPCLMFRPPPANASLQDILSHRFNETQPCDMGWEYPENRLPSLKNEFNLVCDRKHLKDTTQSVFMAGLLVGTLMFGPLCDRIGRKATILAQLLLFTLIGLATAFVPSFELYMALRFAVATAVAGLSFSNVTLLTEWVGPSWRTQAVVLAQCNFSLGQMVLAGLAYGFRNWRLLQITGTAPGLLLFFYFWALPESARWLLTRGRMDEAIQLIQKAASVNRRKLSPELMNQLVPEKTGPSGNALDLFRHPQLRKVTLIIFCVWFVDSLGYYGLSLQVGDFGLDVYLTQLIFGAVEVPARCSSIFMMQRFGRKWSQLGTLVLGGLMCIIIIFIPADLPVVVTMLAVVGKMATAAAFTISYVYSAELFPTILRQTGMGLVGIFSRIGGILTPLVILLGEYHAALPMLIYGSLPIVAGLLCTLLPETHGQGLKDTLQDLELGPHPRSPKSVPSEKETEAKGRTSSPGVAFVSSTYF

IC50 [1]	IC50 [2]	IC50 [4]	IC50 [5]	SMILES	inhibition of [8-14C]-urate uptake in URAT1-expressing 293A cells (10 μM) [3]	IC50 [6]
7.7 µM	0.043 µM			O=C(c1cc(Cl)c(O)c(Cl)c1)N1CS(=O)(=O)c2ccccc21 [DU, dotinurad]	benzbromarone, 6-hydroxybenzbromarone, and dotinurad were more specific to URAT1 than OAT10	
		11.9 µM	2.5 µM	CCCCc1nc(Cl)c(CO)n1Cc1ccc(-c2ccccc2-c2nn[nH]n2)cc1 [LOS, losartan]		
				O=C(O)CSc1nnc(Br)n1-c1ccc(C2CC2)c2ccccc12 [LU, lesinurad]	lesinurad inhibited OAT10 and URAT1 comparably	lesinurad inhibited OAT10 and URAT1 comparably
